Source: PubChem BioAssay (NCI)
“And” between values parts separate entries of the source, which are not always exact repeats. Equal values may be shown once.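 A five-concentration, 48-hour dose response in 96-well plates underlies each endpoint, interpolated linearly between surrounding concentrations. At the GI50, growth is halved. Definition used: TGI = concentration required for complete inhibition of growth.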

Test system: MDA-MB-468 breast
Assay: inhibition of tumour cell growth, NCI panel, 48 h

| Structure (SMILES) | GI50 | TGI |
| --- | --- | --- |
| Cc1[nH]c(/C=C2\C(=O)Nc3ccccc32)c(C)c1CCC(=O)O | 25.6 µM | 70 µM |
| CCOC(=O)c1c(NC(=O)c2cccc(C(F)(F)F)c2)sc2c(CN(C)C)c(O)ccc12 | 1.72 µM | 3.8 µM |
| COc1ccc(-n2c(C)cc(-c3ccccc3)c2C)cc1 | 1.31 µM | 3.47 µM |
| COc1cc(OC)c(/C=C/c2c3ccccc3cc[n+]2C)c(OC)c1 | 0.266 µM | 2.66 µM |
| CCN1C(=O)N(CC)C2C1NN=c1s/c(=C3\C(=O)N(CC(C)(C)C)c4ccccc43)c(=O)n12 (centres undefined) | 3.85 µM | 18.8 µM |
| C[C@H]1[C@H](C)CC[C@]2(C(=O)Nc3ccc4ncccc4c3)CC[C@]3(C)C(=CC[C@@H]4[C@@]5(C)CCCNC(C)(C)[C@@H]5CC[C@]43C)[C@H]12 | 1.74 µM | 3.45 µM |
| COc1cc(/C=C/C(=O)c2cc(OC)c(OC)c(OC)c2)ccc1OCc1ccc(F)cc1 | 2.84 µM | > 100 µM |
| OCCCNc1nccc(-c2c(-c3ccc(F)cc3)nn3cc(C(F)(F)F)ccc23)n1 | 6.72 µM | > 20.3 µM |
| CCCCCOc1ccc(/C=N/Nc2cc(C)nc3ccc(Br)cc23)cc1 | 1.83 µM | 3.57 µM |
| O=C1NC(=NCCc2cccc(Cl)c2)S/C1=C\c1ccc2ncccc2c1 | > 25 µM | > 25 µM |
| CCN(Cc1ccccc1C)c1ccc(CO)c(Cl)c1 | 0.0388 µM | 0.288 µM |
| O=S(=O)(Nc1ccc(F)cc1F)c1ccc(-c2cnc(C3CC3)o2)cc1 | 0.39 µM | 7.86 µM |
| Cc1cc(C)c(NC(=O)c2sc3nc4c(cc3c2N)CN(Cc2ccccc2)CC4)c(C)c1 | 1.78 µM | 88.7 µM |
| NC(=O)OCCn1cc(-c2nc(-c3c[nH]c4ncccc34)cs2)c2ccccc21 | 1.33 µM | 3.8 µM |
| O=C(Nc1ccc(-n2ccc3c(NC(=O)c4ccccc4)nccc32)cc1)Nc1ccc(Cl)c(Cl)c1 | 1.41 µM | 2.96 µM |
| COc1ccc(-c2ccc(-c3ccc(C(=N)N)s3)s2)cc1 | 0.187 µM | 0.379 µM |
| CC(=O)Oc1ccccc1C(=O)Nc1ncc([N+](=O)[O-])s1 | 1.93 µM | 7.64 µM |
| O=C1NC(=O)/C(=C\c2ccccc2)C2=C1CCCC2 | 10.1 µM | 30.2 µM |
| C1=C\COCc2cc(ccc2OCCN2CCCC2)Nc2nccc(n2)-c2cccc(c2)COC/1 | 1.32 µM | 3.79 µM |

| Structure (SMILES) | GI50 | TGI |
| --- | --- | --- |
| CCn1c(=O)c2c(=O)c3c4c(oc3oc2c2ccccc21)C(=O)c1ccccc1C4=O | 0.199 µM | 0.701 µM |
| C#COc1cccc(Nc2c(C#N)cnc3ncc(NC(=O)CCl)cc23)c1 | 12.7 µM | 60.3 µM |
| CCOC(=O)/C=C(/C)Sc1cc(O)c2ccccc2c1O | 3.55 µM | 12.1 µM |
| O[C@H](c1cc(C(F)(F)F)nc2c(C(F)(F)F)cccc12)[C@@H]1CCCCN1 | 1.72 µM | 4.19 µM |
| O=C(CSC1CCc2ccccc21)N/N=C/c1ccccc1O (centres undefined) | 2.73 µM | 13.9 µM |
| CN(CCO)c1ccc(N2Cc3ccccc3OC3=C2C(=O)c2c(O)ccc(O)c2C3=O)cn1 | 0.257 µM | 0.659 µM |
| O=C(c1ccc(/C=C/c2n[nH]c3ccccc23)cc1)N1CCNCC1 | 2.45 µM and 9.15 µM | > 10 µM and 22.5 µM |
| CCCOc1ccc2sc(NC(=O)OC)nc2c1 | 1.19 µM | > 100 µM |
| COC(=O)[C@@H](C)C[C@H](Cc1ccccc1)NC(=O)c1csc([C@@H](C[C@H](C(C)C)N(C)C(=O)[C@@H](NC(=O)[C@H]2CCCCN2C)C2CCCCC2)OC(C)=O)n1 | 0.000311 µM and 0.0025 µM | > 25 µM |
| COc1ccc(O)c(C(=O)c2ccc(C(=O)N[C@H]3CCCNC[C@@H]3NC(=O)c3ccncc3)cc2)c1F | 0.552 µM | > 25 µM |
| Cc1cc(C)c(/C=C2\C(=O)Nc3ccc(NC(=O)CCCCCCC(=O)NO)cc32)[nH]1 | 0.367 µM | 22.6 µM |
| N=C(N)c1ccc2nc(-c3cc(CC(=O)N[C@@H](CC(=O)O)C(=O)O)cc(-c4cc(S(N)(=O)=O)ccc4O)c3O)[nH]c2c1 | > 100 µM | > 100 µM |
| COCC1(CO)C(=O)C2CCN1CC2 (centres undefined) | 18.4 µM | 40.3 µM |
| O=C(NNc1nc2cc(F)c(F)cc2n2c(CN3CC4CNCC4C3)ccc12)c1cnccn1 (centres undefined) | 1.34 µM | 6.54 µM |
| O=C(CSc1nnc(-c2ccc(Cl)cc2)n1-c1ccccc1)Nc1cccc(F)c1 | 4.31 µM | > 100 µM |
| O=C1NC(=O)C(c2cccc([N+](=O)[O-])c2)=C1Nc1cc(Cl)c(O)c(Cl)c1 | 12.3 µM | > 25 µM |
| C=C1C(=O)O[C@H]2[C@H]1CC/C(COC(=O)/C=C\C(=O)NCc1ccc(Cn3c(=O)sn(CCCC)c3=O)cc1)=C\CC[C@@]1(C)O[C@@H]21 | 0.348 µM | 1.39 µM |
| Cn1cc(C2=C(c3cccc(Br)c3)C(=O)NC2=O)c2ccccc21 | 6.7 µM | > 25 µM |
